# Marks after values point to notes of the source that are not given here.
# Legend:
# [1] = versus 10.8 for octanol; cited from earlier work
# [2] = mouse, in vivo
# Experimental: The quantity of probucol, BP, and DPQ in aortic homogenates was determined by gradient reverse-phase high-pressure liquid chromatography (HPLC) as described in FASEB Journal 1999, 13:667-675.
# apoE−/− mice [3] = assay: Aortic biochemistry (non-oxidized lipids, α-tocopherol, oxidized lipids) in aortic segments of apoE−/− mice; format: in vivo; settings: 1% probucol, 24 weeks, mean ± SD; for Lipids: C: 4 pools; for Oxidized lipids: F2-isoprostanes / Oxidized lipids: F2-isoprostanes per arachidonate: ten sections
# From the text: (§1) Male C57BL/6J mice, homozygous for the disrupted apoE gene (apoE−/−) and originally purchased from Jackson Laboratories (Bar Harbor, Me.), were used at 8-10 weeks of age and then fed for 24 weeks ad libitum a high fat diet containing 21.2 (w/w) fat and 0.15% (w/w) cholesterol (specifications of the Harlan Teklad diet TD88137), without (controls, 103 mice) or with probucol (1% w/w, 87 mice), as described in Arteriosclerosis Thrombosis and Vascular Biology 2000, 20:e26-e33. The local animal ethics committee approved the study.
# (§2) Procedures were carried out as described in Arteriosclerosis Thrombosis and Vascular Biology 2000, 20:e26-e33. For biochemistry, hearts and aortas past the femoral bifurcation were excised carefully (n=86 and 70 for control and probucol animals, respectively), cleaned, placed immediately in ice-cold buffer containing protease inhibitors and antibiotics, and then stored at −80° C. For histology, separate mice (n=17 each, for controls and probucol) were perfusion fixed, the hearts and aortas dissected and processed for blinded morphometry at the sinus, arch and descending thoracic and abdominal aorta, precisely as described in Arteriosclerosis Thrombosis and Vascular Biology 2000, 20:e26-e33. Mean areas from thoracic and abdominal aortas were similar and therefore combined and presented as a single value. For histology, sections at the sinus were taken ˜200 μm from the first appearance of the leaflets. Sections at the thoracic and abdominal aorta were taken at the branch point of the 3rd pair of intra-costal arteries and the celiac artery, respectively.
# For F2-isoprostanes, the thawed aortic segment (≈20 mg wet weight) was blotted dry, weighed and F2-isoprostanes analyzed by electron capture negative ionization GC/MS after solid-phase extraction and HPLC purification as described in Analytical Biochemistry 1999, 268:117-125, using [D4]-8-iso-prostaglandin F2α (Cayman Chemical) as internal standard. For arachidonate, phospholipids were separated by thin-layer chromatography, the fatty acid methyl esters then prepared and analyzed by GLC, as described in American Journal of Clinical Nutrition 2000, 71:1085-1094.
# For other analytes, pooled aortic segments were homogenized and extracted as described in Journal of Lipid Research 1999, 40:1104-1112, and the organic phase analysed by HPLC with electrochemical (for α-tocopherol), UV (C and CE) and post-column chemiluminescence detection (CE-OOH) as described in Methods in Enzymology 1999, 299:362-375. CE-OOH were measured as a marker of primary lipoprotein lipid peroxidation as they are the primary and major lipid oxidation products formed in lipoproteins from apoE−/− mice undergoing oxidation in the presence of α-tocopherol. For total cholesterol and 7KC, separate 10 μL and 100 μL aliquots, respectively, of the re-dissolved organic extracts were saponified, and subjected to HPLC as described in Journal of Lipid Research 1997, 38:1730-1745. For 7KC, a silica column (0.46×15 cm, 120 Å, 5 μm, Supelco) with guard column (3 μm particle size) was eluted with hexane/isopropylalcohol/acetonitrile (94.8:4.6:0.6 v/v/v) at 1.0 mL/min and monitored at 234 nm. For all chromatographic analyses, compounds were quantified by area comparison using authentic standards.
# apoE−/− mice [4] = assay: Atherosclerotic lesion size (morphometry) in apoE−/− mice on high fat diet with or without probucol; format: in vivo; settings: 24 weeks
# From the text: as §1, §2
# Data on lesion size are presented as mean±SEM and the effects of probucol analysed by the Mann-Whitney U-test. Biochemical parameters were compared using a one-way ANOVA or Mann-Whitney U-test. Data on total cell numbers, macrophages and collagen content are expressed as mean±SD, and significant differences between means evaluated using the Student's t-test. Statistical significance was accepted at p<0.05.
structure (smiles),measurement,setting,value
CC(C)(Sc1cc(C(C)(C)C)c(O)c(C(C)(C)C)c1)Sc1cc(C(C)(C)C)c(O)c(C(C)(C)C)c1 [probucol],Partition coefficient between octanol and water,[1],10
same,Metabolites (BP and DPQ) relative to parent drug,[2],nearly one third of the drug
same,Antioxidants: α-Tocopherol,apoE−/− mice [3]; Arch,1.6 ± 0.3^a nmol/mgp
same,Lipids: C18:2,apoE−/− mice [3]; Arch,33 ± 9^a nmol/mgp
same,Lipids: C20:4,apoE−/− mice [3]; Arch,17 ± 3^a nmol/mgp
same,Oxidized lipids: 7KC,apoE−/− mice [3]; Arch,0.20 ± 0.11 pmol/mgp
same,Oxidized lipids: 7KC/total cholesterol,apoE−/− mice [3]; Arch,0.25 ± 0.20 mmol/mol
same,Oxidized lipids: CE-OOH,apoE−/− mice [3]; Arch,143.8 ± 118.7 pmol/mgp
same,Oxidized lipids: CE-OOH/CE,apoE−/− mice [3]; Arch,2.70 ± 2.04 mmol/mol
same,Lipids: C,apoE−/− mice [3]; Arch,447 ± 71^a nmol/mgp
same,Oxidized lipids: F2-isoprostanes,apoE−/− mice [3]; Arch,0.35 ± 0.11 pmol/mgp
same,Oxidized lipids: F2-isoprostanes per arachidonate,apoE−/− mice [3]; Arch,10.4 ± 3.6 μmol/mol arachidonate
same,Antioxidants: α-Tocopherol,apoE−/− mice [3]; Sinus,3.0 ± 1.2 nmol/mgp
same,Lipids: C18:2,apoE−/− mice [3]; Sinus,61 ± 11 nmol/mgp
same,Lipids: C20:4,apoE−/− mice [3]; Sinus,33 ± 6 nmol/mgp
same,Oxidized lipids: 7KC,apoE−/− mice [3]; Sinus,0.21 ± 0.11 pmol/mgp
same,Oxidized lipids: 7KC/total cholesterol,apoE−/− mice [3]; Sinus,0.16 ± 0.06 mmol/mol
same,Oxidized lipids: CE-OOH,apoE−/− mice [3]; Sinus,88.1 ± 26.6 pmol/mgp
same,Oxidized lipids: CE-OOH/CE,apoE−/− mice [3]; Sinus,0.93 ± 0.12 mmol/mol
same,Lipids: C,apoE−/− mice [3]; Sinus,928 ± 144 nmol/mgp
same,Oxidized lipids: F2-isoprostanes,apoE−/− mice [3]; Sinus,0.39 ± 0.11 pmol/mgp
same,Oxidized lipids: F2-isoprostanes per arachidonate,apoE−/− mice [3]; Sinus,8.6 ± 4.8 μmol/mol arachidonate
same,Antioxidants: α-Tocopherol,apoE−/− mice [3]; Thoracic/Abdominal,1.2 ± 0.2^a nmol/mgp
same,Lipids: C18:2,apoE−/− mice [3]; Thoracic/Abdominal,"10 ± 5^a,b nmol/mgp"
same,Lipids: C20:4,apoE−/− mice [3]; Thoracic/Abdominal,"5.0 ± 1.4^a,b nmol/mgp"
same,Oxidized lipids: 7KC,apoE−/− mice [3]; Thoracic/Abdominal,0.10 ± 0.04 pmol/mgp
same,Oxidized lipids: 7KC/total cholesterol,apoE−/− mice [3]; Thoracic/Abdominal,0.08 ± 0.02 mmol/mol
same,Oxidized lipids: CE-OOH,apoE−/− mice [3]; Thoracic/Abdominal,20.3 ± 8.1 pmol/mgp
same,Oxidized lipids: CE-OOH/CE,apoE−/− mice [3]; Thoracic/Abdominal,1.46 ± 0.72 mmol/mol
same,Lipids: C,apoE−/− mice [3]; Thoracic/Abdominal,215 ± 55^a nmol/mgp
same,Oxidized lipids: F2-isoprostanes,apoE−/− mice [3]; Thoracic/Abdominal,"0.14 ± 0.04^a,b pmol/mgp"
same,Oxidized lipids: F2-isoprostanes per arachidonate,apoE−/− mice [3]; Thoracic/Abdominal,"3.8 ± 1.4^a,b μmol/mol arachidonate"
same,Lesion size,"apoE−/− mice [4]; Arch, 1% probucol, mean ± SEM, 17 mice",121 ± 27^a μm^2 × 10^−3
same,Lesion size,"apoE−/− mice [4]; Sinus, 1% (w/w) probucol in high fat diet, mean ± SEM, 17 mice",904 ± 56 μm^2 × 10^−3
same,Lesion size,"apoE−/− mice [4]; Thoracic/Abdominal, 1% probucol, mean ± SEM, 17 mice",7 ± 2^a μm^2 × 10^−3
same,Lesion size,"apoE−/− mice [4]; arch, 1% probucol",0.12±0.03 mm^2
same,Inhibition of disease (lesion size) versus control,"apoE−/− mice [4]; arch, 1% probucol, not significant",36%
same,Lesion size,"apoE−/− mice [4]; descending aorta, 1% probucol","7,300±2,400 μm^2"
same,Inhibition of disease (lesion size) versus control,"apoE−/− mice [4]; descending aorta, 1% probucol, p<0.0001",94%
same,Lesion size,"apoE−/− mice [4]; sinus, 1% probucol",0.90±0.56 mm^2
same,Increase in lesion size versus control,"apoE−/− mice [4]; sinus, 1% probucol, p<0.01",33%
